# Source: patent publication US20260207769A1, “ANTIBODY DRUG CONJUGATES” (YALE UNIVERSITY, priority 2022, published 2026)
# Experiments:
# WT DLD-1 cells [1] = experiment: Shorter versus longer term treatment, viability of WT DLD-1 cells; assay type: cell-based, human
# Experimental: (§1) To determine whether the EC50 values would change based on the duration of the treatment with 3E10-SN38 conjugates, WT or BRCA2^−/− DLD-1 cells were treated with different concentrations of SN38, cD31N antibody, or cD31N-SN38 conjugate and cell viability, and the EC50 values were tracked over time. Shorter term treatment was defined as a 24 hour treatment followed by a change to fresh treatment-free medium. Longer term treatment was defined as treatment without a change of medium for 7 days (e.g., the treatment is not removed).
# [2] = tested on: LoVo colorectal cancer cells; experiment: Cell viability of LoVo cells after 7 days of treatment; assay type: cell-based
# Experimental: LoVo colorectal cancer cells were treated with SN38, cD31N antibodies, V66 3E10 antibodies, and conjugates of the present disclosure. […] The EC50 values were calculated and are set forth below in Table 3.
# [3] = tested on: HCT116 colorectal cancer cells; experiment: Cell viability of WT HCT116 cells; assay type: cell-based
# Experimental: WT and mutant IDH1 (IDH1^mut) HCT116 cells were treated with different concentrations of SN38, cD31N antibody, or cD31N-SN38 conjugate. The effects of 3E10-cD31N-SN38 conjugate treatment on HCT116 WT and HCT116IDH1^mut were investigated.
# BRCA2^−/− DLD-1 cells [4] = experiment: Single 24 hour treatment, long-term viability of BRCA2-/- DLD-1 cells; assay type: cell-based, human; conditions: BRCA2-/- DLD-1, 24 hour treatment, days 3, 5 and 7
# Experimental: (§2) The effects of treatment with the SN38 or 3E10-SN38 conjugates on the colorectal cancer DLD-1 cell line were investigated. WT and BRCA2^−/− deficient DLD-1 cells were tested. FIG. 13 provides the study protocol and timeline. Each well of a 96-well plate was loaded with 1000 DLD-1 cells. 24 hours post-plating, cells were treated with different concentrations of cWT-SN38 conjugate, cD31N-SN38 conjugate, or SN38 for 24 hours. After treatment, the media was replaced with fresh treatment-free media and was not changed again. Cell viability and half maximal effective concentration (EC50) were tracked every 48 hours post-treatment on days 3, 5, and 7. Half maximal effective concentration (EC50) is a measure of the concentration of a drug, antibody or toxicant which induces a response halfway between the baseline and maximum after a specified exposure time.
# [5] = tested on: DNA damage response proteins; experiment: Western blot of DNA damage response proteins in PEO-4 cells; assay type: cell-based; conditions: 100 nM, 24 and 48 hours
# Experimental: PEO-4 (WT) and PEO-1 (BRCA2^−/−) ovarian cancer cells were treated with 100 nM of SN38, cD31N or cD31N-SN38 and collected at 24 and 48 hours of treatment for Western blot analysis to measure specific protein markers of DNA damage response as previously described.
# BRCA2^−/− DLD-1 cells [6] = experiment: Clonogenic assay in BRCA2-/- DLD-1 cells; assay type: cell-based, human; conditions: BRCA2-/- DLD-1, after 10 days
# Experimental: Clonogenic or colony formation assays are in vitro assays that can measure the survival or growth of cells on a single-cell level based on the ability of a single cell to grow into a colony. WT or BRCA2^−/− DLD-1 cells were plated with different concentrations of SN38, 3E10 antibody, or 3E10-SN38 conjugate added into the clonogenic assay media. After 7 days for WT cells or 10 days for BRCA2^−/− cells, colony numbers were counted to quantify DLD-1 cell survival. […] Consistent with earlier results, DLD-1 cell survival was concentration-dependent.
# BRCA2^−/− DLD-1 cells [7] = experiment: Shorter versus longer term treatment, viability of BRCA2-/- DLD-1 cells; assay type: cell-based, human
# Experimental: as §1
# WT DLD-1 cells [8] = experiment: Single 24 hour treatment, long-term viability of WT DLD-1 cells; assay type: cell-based, human; conditions: WT DLD-1, 24 hour treatment, days 3, 5 and 7
# Experimental: as §2
# DLD-1 cells = experiment: treatment duration, single dose of SN38 or 3E10-SN38 conjugates, cancer cell growth (Example 7); assay type: cell-based; conditions: effects dose dependent
# Source text: FIGS. 14, 15, and 16 show the cell viability of WT and BRCA2^−/− DLD-1 cells after treatment with SN38, cWT-SN38 or cD31N-SN38 at 3, 5, and 7 days post-treatment, respectively.
# FIGS. 14A, 15A, and 16A show the viability of WT DLD-1 cells and FIGS. 14B, 15B, and 16B show the viability of BRCA2^−/−- DLD-1 cells. The calculated EC50 values are provided.
# FIGS. 17 and 18 show the effects of shorter and longer term treatment on cell viability in WT DLD-1 cells (FIGS. 17A and 17B) and BRCA2^−/−- DLD-1 cells (FIGS. 18A and 18B) at day 7 after treatment with SN38 or cD31N-SN38 conjugate. Shorter term treatment was defined as a 24 hour treatment followed by a change to fresh treatment-free media. Longer term treatment was defined as 7 days of treatment without a change of medium. The calculated EC50 values are provided.
# [9] = tested on: PEO-4 (WT) ovarian adenocarcinoma cells; experiment: Cell viability of PEO-4 cells; assay type: cell-based; conditions: PEO-4 (WT) cells, at 7 days
# Source text: (§3) Cancer cell lines were acquired from ATCC and cultured according to well known methods in the art. Treatment with cytotoxic agents, antibodies, or ADCs refers to the addition of the cytotoxic agent, antibody or ADC (i.e., DM1 or cD31N-DM1, etc.) to the culture media for a set duration.
# The effects of longer-term treatment with SN38 and cD31N-SN38 on PEO-4 (WT) and PEO-1 (BRCA2^−/−) ovarian cancer cells were investigated.
# [10] = tested on: SKOV3 ovarian cancer cells; experiment: Cell viability of SKOV3 cells at 7 days of treatment; assay type: cell-based
# Experimental: The effect of SN38 and 3E10-SN38 conjugates were investigated in SKOV3 ovarian cancer cells. SKOV3 cells were treated with SN38, various 3E10 antibodies and 3E10-SN38 conjugates.
# EC50 values are also included.
# The EC50 values were calculated and are set forth below in Table 4.
# [11] = tested on: BRCA2^−/− DLD-1 colorectal adenocarcinoma cells; experiment: Cell viability assay in BRCA2-/- DLD-1 cells; assay type: cell-based, human; conditions: BRCA^−/− DLD-1 cells
# Source text: as §3
# BRCA2 deficient (BRCA2′) cells are more sensitive to DM1 because BRCA2 participates in DNA double-stranded break (DSB) repair.
compound,measurement,setting,value
"CCc1c2c(nc3ccc(O)cc13)-c1cc3c(c(=O)n1C2)COC(=O)[C@]3(O)CC [SN38, SN-38]",cell viability,"WT DLD-1 cells [1]; WT DLD-1, day 7 of longer term treatment",cell viability was reduced
same,"cell viability and EC50, longer term versus shorter term treatment","WT DLD-1 cells [1]; WT DLD-1, 7 days without change of medium vs 24 hour treatment",lower cell viability and lower EC50 values than with shorter term treatment
same,EC50,[2],5.8 nM
same,cell viability,[2],strongest effect on cell viability
same,cell viability,[3]; 5 days of treatment,substantial loss in cell viability
same,cell viability,[3]; 7 days of treatment,substantial loss in cell viability
same,EC50 values compared between treatments,BRCA2^−/− DLD-1 cells [4],lower EC50 value than both 3E10-SN38 conjugates
same,protein expression of DNA damage response proteins,[5],protein expression of DNA damage response proteins was increased
same,cell survival (colony numbers),BRCA2^−/− DLD-1 cells [6],reduced cell survival
same,cell viability,"BRCA2^−/− DLD-1 cells [7]; BRCA2-/- DLD-1, day 7 of longer term treatment",cell viability was reduced
same,"cell viability and EC50, longer term versus shorter term treatment","BRCA2^−/− DLD-1 cells [7]; BRCA2-/- DLD-1, 7 days without change of medium vs 24 hour treatment",lower cell viability and lower EC50 values than with shorter term treatment
same,EC50 values compared between treatments,WT DLD-1 cells [8],lower EC50 value than both 3E10-SN38 conjugates
same,long-term effects on cancer cell growth,DLD-1 cells,can have long-term effects on cancer cell growth
same,cell viability,[9],reduced cell viability in a concentration-dependent manner resulting in low EC50 values
same,cell viability at the highest concentrations,[10],about 0%
same,EC50,[10]; 7 days of treatment,2.8 nM
same,EC50,[11],0.65 nM
